Source: patent US20020137929A1, “1 - (3-heterocyclylphenyl) isothiourea, -isourea, -guanidine and -amidine herbicidal agents” (Intellectual Property Department, BASF Aktiengesellschaft, priority 1998, published 2002)

Key:
ABUTH (Velvetleaf) [1] = experiment: Postemergence herbicidal evaluation; assay type: in vivo, Abutilon theophrasti; conditions: postemergence
Method in brief: (§1)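 Visual 0–9 rating versus control (stand, vigor, malformation, size, chlorosis, overall appearance), taken four to five weeks post-spray. Two-week-old seedlings received roughly 0.0156–0.500 kg/ha active in acetone/water (50/50) with 0.5% TWEEN 20 via nozzle at 40 psi.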

CASOB (Sicklepod) = experiment: Preemergence herbicidal evaluation; assay type: in vivo, Cassia obtusifolia; conditions: rated 4-5 weeks after treatment, rating scale 0-9
From the text: (§2) Results of herbicide evaluation are expressed on a rating scale (0-9). The scale is based upon a visual observation of plant stand, vigor, malformation, size, chlorosis and overall plant appearance as compared with a control.
(§3) The preemergence herbicidal activity of the test compounds of the present invention is exemplified by the following tests in which the seeds of a variety of monocotyledonous and dicotyledonous plants are separately mixed with potting soil and planted on top of approximately one inch of soil in separate pint cups. After planting, the cups are sprayed with the selected aqueous acetone solution containing test compound in sufficient quantity to provide the equivalent of about 0.0156 to 0.500 kg per hectare of test compound per cup. The treated cups are then placed on greenhouse benches, watered and cared for in accordance with conventional greenhouse procedures. From four to five weeks after treatment, the tests are terminated and each cup is examined and rated according to the rating system provided in Example 37.
(§4) The compounds evaluated are reported by compound number given in Example 37.

ZEAMX (Corn, Field) = experiment: Postemergence herbicidal evaluation; assay type: in vivo, Zea mays; conditions: postemergence
Method in brief: as §1

ABUTH (Velvetleaf) [2] = experiment: Preemergence herbicidal evaluation; assay type: in vivo, Abutilon theophrasti; conditions: rated 4-5 weeks after treatment, rating scale 0-9
Method in brief: (§5)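 Greenhouse preemergence test: seed-soil mix sown on ~1 inch soil; aqueous acetone spray at equivalent of ~0.0156–0.500 kg/ha; greenhouse-held and watered; scored 0–9 visually at 4–5 weeks.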

[3] = system: ECHORC (Watergrass (Calif.)); experiment: Preemergence weed control under flooded paddy conditions; assay type: in vivo, Echinochloa oryzoides; conditions: 0.2500 kg/ha, rated 3-4 weeks after treatment
Method in brief: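 Flooded-pot preemergence screen with silt loam and seeds in the upper 0.5 cm. Dose about 0.0313 to 0.500 kg/ha, delivered into flood water; visual 0-9 score after 3 to 4 weeks.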

[4] = system: IPOHE (Morningglory, Ivyleaf); experiment: Preemergence herbicidal evaluation; assay type: in vivo, Ipomoea hederacea; conditions: rated 4-5 weeks after treatment, rating scale 0-9
From the text: as §2, §3, §4

[5] = system: IPOHE (Morningglory, Ivyleaf); experiment: Postemergence herbicidal evaluation; assay type: in vivo, Ipomoea hederacea; conditions: postemergence
Method in brief: as §1

SETVI (Foxtail, Green) = experiment: Postemergence herbicidal evaluation; assay type: in vivo, Setaria viridis; conditions: postemergence
Method in brief: as §1

AMBEL (Ragweed, Common) = experiment: Preemergence herbicidal evaluation; assay type: in vivo, Ambrosia artemisifolia; conditions: rated 4-5 weeks after treatment, rating scale 0-9
Method in brief: as §5

ECHCG (Barnyardgrass) = experiment: Preemergence herbicidal evaluation; assay type: in vivo, Echinochloa crus-galli; conditions: rated 4-5 weeks after treatment, rating scale 0-9
Method in brief: as §5

[6] = system: GLXMAW (Soybean, Williams); experiment: Postemergence herbicidal evaluation; assay type: in vivo, Glycine max, (L.) Merr. cv Williams; conditions: postemergence
Method in brief: as §1

CSCCN1C(=O)CSC1=Nc1cc(-n2c(=O)cc(C(F)(F)F)n(C)c2=O)c(F)cc1Cl [Compound 157]
herbicidal rating ABUTH (ABUTH (Velvetleaf) [1]; rate 0.0156 kg/ha): 7.0 | herbicidal rating ABUTH (ABUTH (Velvetleaf) [1]; rate 0.0313 kg/ha): 9.0 | herbicidal rating ABUTH (ABUTH (Velvetleaf) [1]; rate 0.0625 kg/ha): 9.0 | Preemergence herbicidal rating CASOB (CASOB (Sicklepod); rate 0.0313 kg/ha): 1.0 | Preemergence herbicidal rating CASOB (CASOB (Sicklepod); rate 0.0625 kg/ha): 0.0 | Preemergence herbicidal rating CASOB (CASOB (Sicklepod); rate 0.1250 kg/ha): 1.0 | Preemergence herbicidal rating CASOB (CASOB (Sicklepod); rate 0.2500 kg/ha): 5.0 | herbicidal rating ZEAMX (ZEAMX (Corn, Field); rate 0.0156 kg/ha): 7.0 | herbicidal rating ZEAMX (ZEAMX (Corn, Field); rate 0.0313 kg/ha): 7.0 | herbicidal rating ZEAMX (ZEAMX (Corn, Field); rate 0.0625 kg/ha): 7.0 | Preemergence herbicidal rating ABUTH (ABUTH (Velvetleaf) [2]; rate 0.0313 kg/ha): 0.0 | Preemergence herbicidal rating ABUTH (ABUTH (Velvetleaf) [2]; rate 0.0625 kg/ha): 0.0 | Preemergence herbicidal rating ABUTH (ABUTH (Velvetleaf) [2]; rate 0.1250 kg/ha): 4.0 | Preemergence herbicidal rating ABUTH (ABUTH (Velvetleaf) [2]; rate 0.2500 kg/ha): 6.0 | herbicidal effect rating, ECHORC [3]: 0.0 | Preemergence herbicidal rating IPOHE ([4]; rate 0.0313 kg/ha): 0.0 | Preemergence herbicidal rating IPOHE ([4]; rate 0.0625 kg/ha): 0.0 | Preemergence herbicidal rating IPOHE ([4]; rate 0.1250 kg/ha): 1.0 | Preemergence herbicidal rating IPOHE ([4]; rate 0.2500 kg/ha): 2.0 | herbicidal rating IPOHE ([5]; rate 0.0156 kg/ha): 3.0 | herbicidal rating IPOHE ([5]; rate 0.0313 kg/ha): 7.0 | herbicidal rating IPOHE ([5]; rate 0.0625 kg/ha): 6.0 | herbicidal rating SETVI (SETVI (Foxtail, Green); rate 0.0156 kg/ha): 0.0 | herbicidal rating SETVI (SETVI (Foxtail, Green); rate 0.0313 kg/ha): 1.0 | herbicidal rating SETVI (SETVI (Foxtail, Green); rate 0.0625 kg/ha): 7.0 | Preemergence herbicidal rating AMBEL (AMBEL (Ragweed, Common); rate 0.0313 kg/ha): 0.0 | Preemergence herbicidal rating AMBEL (AMBEL (Ragweed, Common); rate 0.0625 kg/ha): 0.0 | Preemergence herbicidal rating AMBEL (AMBEL (Ragweed, Common); rate 0.1250 kg/ha): 0.0 | Preemergence herbicidal rating AMBEL (AMBEL (Ragweed, Common); rate 0.2500 kg/ha): 1.0 | Preemergence herbicidal rating ECHCG (ECHCG (Barnyardgrass); rate 0.0313 kg/ha): 0.0 | Preemergence herbicidal rating ECHCG (ECHCG (Barnyardgrass); rate 0.0625 kg/ha): 0.0 | Preemergence herbicidal rating ECHCG (ECHCG (Barnyardgrass); rate 0.1250 kg/ha): 1.0 | Preemergence herbicidal rating ECHCG (ECHCG (Barnyardgrass); rate 0.2500 kg/ha): 0.0 | herbicidal rating GLXMAW ([6]; rate 0.0156 kg/ha): 4.5 | herbicidal rating GLXMAW ([6]; rate 0.0313 kg/ha): 5.0 | herbicidal rating GLXMAW ([6]; rate 0.0625 kg/ha): 7.5

COc1ccc(CN2C(=O)CSC2=Nc2cc(-n3c(=O)cc(C(F)(F)F)n(C)c3=O)c(F)cc2Cl)cc1OC [Compound 134, 3-{4-Chloro-5-{[3-(3,4-dimethoxybenzyl)-4-oxo-2-thiazolidinylidene]amino}-2-fluorophenyl}-1-methyl-6-(trifluoromethyl)-2,4(1H,3H)-pyrimidinedione]
herbicidal rating ABUTH (ABUTH (Velvetleaf) [1]; rate 0.0156 kg/ha): 5.0 | herbicidal rating ABUTH (ABUTH (Velvetleaf) [1]; rate 0.0313 kg/ha): 7.0 | herbicidal rating ABUTH (ABUTH (Velvetleaf) [1]; rate 0.0625 kg/ha): 9.0 | Preemergence herbicidal rating CASOB (CASOB (Sicklepod); rate 0.1250 kg/ha): 0.0 | Preemergence herbicidal rating CASOB (CASOB (Sicklepod); rate 0.2500 kg/ha): 1.0 | herbicidal rating ZEAMX (ZEAMX (Corn, Field); rate 0.0156 kg/ha): 3.5 | herbicidal rating ZEAMX (ZEAMX (Corn, Field); rate 0.0313 kg/ha): 4.5 | herbicidal rating ZEAMX (ZEAMX (Corn, Field); rate 0.0625 kg/ha): 4.5 | Preemergence herbicidal rating ABUTH (ABUTH (Velvetleaf) [2]; rate 0.1250 kg/ha): 0.0 | Preemergence herbicidal rating ABUTH (ABUTH (Velvetleaf) [2]; rate 0.2500 kg/ha): 7.0 | herbicidal effect rating, ECHORC [3]: 2.0 | Preemergence herbicidal rating IPOHE ([4]; rate 0.1250 kg/ha): 0.0 | Preemergence herbicidal rating IPOHE ([4]; rate 0.2500 kg/ha): 0.0 | herbicidal rating IPOHE ([5]; rate 0.0156 kg/ha): 3.0 | herbicidal rating IPOHE ([5]; rate 0.0313 kg/ha): 9.0 | herbicidal rating IPOHE ([5]; rate 0.0625 kg/ha): 9.0 | herbicidal rating SETVI (SETVI (Foxtail, Green); rate 0.0156 kg/ha): 0.0 | herbicidal rating SETVI (SETVI (Foxtail, Green); rate 0.0313 kg/ha): 0.0 | herbicidal rating SETVI (SETVI (Foxtail, Green); rate 0.0625 kg/ha): 1.0 | Preemergence herbicidal rating AMBEL (AMBEL (Ragweed, Common); rate 0.1250 kg/ha): 0.0 | Preemergence herbicidal rating AMBEL (AMBEL (Ragweed, Common); rate 0.2500 kg/ha): 3.0 | Preemergence herbicidal rating ECHCG (ECHCG (Barnyardgrass); rate 0.1250 kg/ha): 0.0 | Preemergence herbicidal rating ECHCG (ECHCG (Barnyardgrass); rate 0.2500 kg/ha): 0.0 | herbicidal rating GLXMAW ([6]; rate 0.0156 kg/ha): 3.5 | herbicidal rating GLXMAW ([6]; rate 0.0313 kg/ha): 4.0 | herbicidal rating GLXMAW ([6]; rate 0.0625 kg/ha): 5.0
